Source: ChEMBL document CHEMBL5523723, “G Protein-Coupled Estrogen Receptor-Mediated Anti-Inflammatory and Mucosal Healing Activity of a Trimethylpyridinol Analogue in Inflammatory Bowel Disease” (J Med Chem, 2024)

Legend:
[1] = Inhibition of IL6 induced adhesion of TPA treated human U-937 cells to human HT-29 cells at 1 uM pretreated with HT-29 for 1 hr followed by U-937 addition along with IL6 stimulation for 3 hrs by fluorescence based microplate reader assay relative to control; type: functional; details: time 4 hrs
U-937 = assay: Inhibition of TNFalpha induced adhesion of TPA treated human U-937 cells to human HT-29 cells at 1 uM pretreated with HT-29 for 1 hr followed by U-937 addition along with TNFalpha stimulation for 3 hrs by fluorescence based microplate reader assay relative to control; type: functional; details: time 4 hrs
Mus musculus [2] = assay: Antiinflammatory activity against DSS-induced chronic colitis in C57BL/6N/Crl mouse model assessed as recovery of colon weight at 30 mg/kg, po administered daily 6 days per week for 5 weeks
Mus musculus [3] = assay: Antiinflammatory activity against DSS-induced chronic colitis in C57BL/6N/Crl mouse model assessed as recovery of body weight at 30 mg/kg, po administered daily 6 days per week for 5 weeks

## Cc1nc(NC(=O)c2cccc(F)c2)c(C)c(C)c1O
[1]
  inhibition at 1 µM: 44.2%
U-937
  inhibition at 1 µM: 54.1%

## C[C@@H]1CCN(C(=O)CC#N)C[C@@H]1N(C)c1ncnc2[nH]ccc12 [TOFACITINIB]
Mus musculus [2]
  Activity: 68.2%
Mus musculus [3]
  Activity: 29.5%

## Cc1nc(NC(=O)c2ccccc2Cl)c(C)c(C)c1O
[1]
  inhibition at 1 µM: 15%
U-937
  inhibition at 1 µM: 7.9%

## Cc1nc(NC(=O)c2ccsc2)c(C)c(C)c1O
[1]
  inhibition at 1 µM: 19.3%
U-937
  inhibition at 1 µM: 11.5%

## Cc1nc(NC(=O)c2cc3ccccc3s2)c(C)c(C)c1O
[1]
  inhibition at 1 µM: 27%

## Cc1nc(NC(=O)c2ccc(-c3cc(Cl)ccc3Cl)o2)c(C)c(C)c1O
[1]
  inhibition at 1 µM: 69.6%
U-937
  inhibition at 1 µM: 78.2%

## COc1ccccc1C(=O)Nc1nc(C)c(O)c(C)c1C
[1]
  inhibition at 1 µM: 44%
U-937
  inhibition at 1 µM: 58%

## Cc1ccc2c(Cl)c(C(=O)Nc3nc(C)c(O)c(C)c3C)sc2c1
[1]
  inhibition at 1 µM: 8.7%

## Cc1nc(NC(=O)c2cccs2)c(C)c(C)c1O
[1]
  inhibition at 1 µM: 61.6%

## Cc1nc(NC(=O)c2sc3ccccc3c2Cl)c(C)c(C)c1O
[1]
  inhibition at 1 µM: 11.4%

## Cc1nc(NC(=O)c2c(-c3ccccc3)noc2C)c(C)c(C)c1O
[1]
  inhibition at 1 µM: 37.8%
U-937
  inhibition at 1 µM: 18.8%

## Cc1nc(NC(=O)c2ccc3ccccc3c2)c(C)c(C)c1O
[1]
  inhibition at 1 µM: 33.1%
U-937
  inhibition at 1 µM: 42.9%

## Cc1ccc(C(=O)Nc2nc(C)c(O)c(C)c2C)o1
[1]
  inhibition at 1 µM: 70.2%
U-937
  inhibition at 1 µM: 79.9%

## Cc1nc(NC(=O)c2sc3cc(Cl)ccc3c2Cl)c(C)c(C)c1O
[1]
  inhibition at 1 µM: 9%

## Cc1ccccc1C(=O)Nc1nc(C)c(O)c(C)c1C
[1]
  inhibition at 1 µM: 41.5%
U-937
  inhibition at 1 µM: 47.3%
